Structures can show the parent of a compound that is named as a salt.
How the values were obtained:
[1] = Aqueous solubility; format: physicochemical; conditions: water
[2] = Conversion of prodrug to parent compound 1 after IV dosing (plasma HPLC); format: in vivo; conditions: male Wistar rats; for metabolised at 24 h: rat, n=3, slow IV bolus about 5 mg/kg parent-equivalent, parent compound 1 in plasma up to 24 h; for conversion to parent compound 1 in vivo (in words): IV administration
Description: Male Wistar rats weighing 244 to 390 g were used in the in vivo experiments. The day before the experiment, the rats were surgically prepared. Rats were anesthetized with ether, and the right jugular vein was cannulated for intravenous dosing and/or systemic sampling. The cannula was exteriorized at the nape of the rat between the shoulder blades. The animals were allowed to recover overnight from surgery and fasted with water ad libitum.
Dosing solutions of the prodrugs (5, 25, 18, 34, 20c, 20d, 20e, and 20f) were prepared separately in 5% dextrose in water (D5W). Compound 20a was dissolved in 5% ethanol in D5W whereas compound 29 was dissolved in 20% ethanol, 20% polyethylene glycol 400 in D5W. Animals were randomly assigned to groups of three. The prodrug solutions were administered intravenously as a slow bolus at about 5 mg/kg parent-equivalent or orally as a gastric gavage at about 15 mg/kg parent-equivalent (Table 1 on Page 10 contains PO data). The cannula was subsequently rinsed with 1 mL D5W. Systemic blood was sampled predose and at selected times up to 24 hours after dosing. Blood samples (0.5 mL) were collected on ice, heparinized, and immediately centrifuged; then plasma was harvested and stored at -20° C. until analysis by HPLC.
The plasma samples were analyzed by validated HPLC assay for the parent compound 1. Plasma (200 μL) was spiked with 18 μL of internal standard ([2-(1H-indol-3-yl)-1-methyl-1-(1-phenyl-ethylcarbamoyl)-ethyl]-carbimic acid 4-ethyl-benzyl ester; 2.5 μM) and 400 μL acetonitrile (ACN) to precipitate protein. The supernatant was transferred to a clean test tube and evaporated to dryness. The residue was reconstituted in 50:50 ACN:water and injected onto the HPLC.
Detailed bioconversion data often prodrugs is found in Table 1 below.

| Structure (SMILES) | solubility ([1]; parent drug) [µg/mL] | metabolised at 24 h [2] [%] | conversion to parent compound 1 in vivo (in words) [2] | aqueous solubility (in words) [1] | metabolised at 24 h ([2]; in vivo) [%] |
| --- | --- | --- | --- | --- | --- |
| C[C@H](NC(=O)[C@@](C)(Cc1c[nH]c2ccccc12)NC(=O)OCc1cc2ccccc2o1)c1ccccc1 [Compound 1, 2-benzofuranylmethyl [R-(R*,S*)]-[1-(1H-indol-3-ylmethyl)-1-methyl-2-oxo-2-[(1-phenylethyl)amino]ethyl]carbamate, reference compound] | < 1 |  |  |  |  |
| C[C@H](NC(=O)[C@@](C)(Cc1cn(P(=O)(O)O)c2ccccc12)NC(=O)OCc1cc2ccccc2o1)c1ccccc1 [Compound 5, {3-[2-(Benzofuran-2-ylmethoxycarbonylamino)-2-(1-phenyl-ethylcarbamoyl)propyl]-indol-1-yl}-phosphonic acid disodium salt] |  | 11.7 ± 0.84 |  |  |  |
| C[C@H](NC(=O)[C@@](C)(Cc1cn(C(=O)OCOC(=O)c2ccc(COP(=O)(O)O)cc2)c2ccccc12)NC(=O)OCc1cc2ccccc2o1)c1ccccc1 [Compound 18, 3-[2-(Benzofuran-2-ylmethoxycarbonylamino)-2-(1-phenyl-ethylcarbamoyl)propyl]-indol-1-carboxylic acid phosphonooxymethylbenzoyloxymethyl ester disodium salt] |  | 59.5 ± 21.3 | highest reconversion |  |  |
| C[C@H](NC(=O)[C@@](C)(Cc1cn(C(=O)OCOC(=O)c2ccc(CN(C)C)cc2)c2ccccc12)NC(=O)OCc1cc2ccccc2o1)c1ccccc1 [Compound 20a, 3-[2-(Benzofuran-2-ylmethoxycarbonylamino)-2-(1-phenyl-ethylcarbamoyl)-propyl]-indole-1-carboxylic acid 4-dimethylaminomethyl-benzoyloxymethyl ester monohydrochloride salt] |  | 86.9 ± 18.6 | higher conversion than the phosphate prodrugs | not water-soluble |  |
| C[C@H](NC(=O)[C@@](C)(Cc1cn(C(=O)OCOC(=O)c2ccc(CN3CCN(C)CC3)cc2)c2ccccc12)NC(=O)OCc1cc2ccccc2o1)c1ccccc1 [Compound 20c, 3-[2-(Benzofuran-2-ylmethoxycarbonylamino)-2-(1-phenyl-ethylcarbamoyl)-propyl]-indole-1-carboxylic acid 4-(4-methyl-piperazin-1-methyl)-benzoyloxymethyl ester dihydrochloride salt] |  | 68 ± 5.2 | comparable reconversion as (20a) |  |  |
| C[C@H](NC(=O)[C@@](C)(Cc1cn(C(=O)OCOC(=O)c2ccc(CN3CCN(CCO)CC3)cc2)c2ccccc12)NC(=O)OCc1cc2ccccc2o1)c1ccccc1 [Compound 20d, 3-[2-(Benzofuran-2-ylmethoxycarbonylamino)-2-(1-phenyl-ethylcarbamoyl)-propyl]-indole-1-carboxylic acid 4-[4-(2-hydroxy-ethyl)-piperazin-1-ylmethyl]-benzoyloxymethyl ester dihydrochloride salt] |  | 64.2 ± 14.3 | comparable reconversion as (20a) |  |  |
| C[C@H](NC(=O)[C@@](C)(Cc1cn(C(=O)OCOC(=O)c2ccc(CN3CCNCC3)cc2)c2ccccc12)NC(=O)OCc1cc2ccccc2o1)c1ccccc1 [Compound 20e, 3-[2-(Benzofuran-2-ylmethoxycarbonylamino)-2-(1-phenyl-ethylcarbamoyl)-propyl]-indole-1-carboxylic acid 4-piperazin-1-ylmethyl-benzoyloxymethyl ester dihydrochloride salt] |  | 88.5 ± 9.2 | comparable reconversion as (20a) |  |  |
| C[C@H](NC(=O)[C@@](C)(Cc1cn(C(=O)OCOC(=O)c2ccc(CN(C)CCN(C)C)cc2)c2ccccc12)NC(=O)OCc1cc2ccccc2o1)c1ccccc1 [Compound 20f, 3-[2-(Benzofuran-2-ylmethoxycarbonylamino)-2-(1-phenyl-ethylcarbamoyl)-propyl]-indole-1-carboxylic acid 4-{[(2-dimethylamino-ethyl)-methyl-amino]-methyl}-benzoyloxymethyl ester dihydrochloride salt] |  | 104 ± 38.2 | comparable reconversion as (20a) |  |  |
| C[C@H](NC(=O)[C@@](C)(Cc1cn(C(=O)c2ccccc2COP(=O)(O)O)c2ccccc12)NC(=O)OCc1cc2ccccc2o1)c1ccccc1 [Compound 25, {1-Methyl-1-(1-phenyl-ethylcarbamoyl)-2-[1-(2-phosphonooxymethyl-benzoyl)-1H-indol-3-yl]-ethyl}-carbamic acid benzofuran-2-ylmethyl ester disodium salt] |  | 19.9 ± 1.07 |  |  |  |
| Cc1cc(C)c(C(C)(C)CC(=O)n2cc(C[C@@](C)(NC(=O)OCc3cc4ccccc4o3)C(=O)N[C@@H](C)c3ccccc3)c3ccccc32)c(OP(=O)(O)O)c1 [Compound 34, [2-{1-[3-(2,4-Dimethyl-6-phosphonooxy-phenyl)-3-methylbutyryl]-1H-indol-3-yl}-1-methyl-1-(1-phenylethylcarbamoyl)ethyl]carbamic acid benzofuran-2-ylmethyl ester disodium salt] |  |  | lowest bioconversion in vivo |  | 9.35 ± 4.12 |
